The source made the active and inactive calls.
Experiments:
[1] = target: Serine/threonine-protein kinase PAK 6 (Homo sapiens, UniProt Q9NQU5)
[2] = target: T1, Eukaryotic translation initiation factor 5B (Homo sapiens, UniProt O60841)
T1 sequence (O60841 whole entry): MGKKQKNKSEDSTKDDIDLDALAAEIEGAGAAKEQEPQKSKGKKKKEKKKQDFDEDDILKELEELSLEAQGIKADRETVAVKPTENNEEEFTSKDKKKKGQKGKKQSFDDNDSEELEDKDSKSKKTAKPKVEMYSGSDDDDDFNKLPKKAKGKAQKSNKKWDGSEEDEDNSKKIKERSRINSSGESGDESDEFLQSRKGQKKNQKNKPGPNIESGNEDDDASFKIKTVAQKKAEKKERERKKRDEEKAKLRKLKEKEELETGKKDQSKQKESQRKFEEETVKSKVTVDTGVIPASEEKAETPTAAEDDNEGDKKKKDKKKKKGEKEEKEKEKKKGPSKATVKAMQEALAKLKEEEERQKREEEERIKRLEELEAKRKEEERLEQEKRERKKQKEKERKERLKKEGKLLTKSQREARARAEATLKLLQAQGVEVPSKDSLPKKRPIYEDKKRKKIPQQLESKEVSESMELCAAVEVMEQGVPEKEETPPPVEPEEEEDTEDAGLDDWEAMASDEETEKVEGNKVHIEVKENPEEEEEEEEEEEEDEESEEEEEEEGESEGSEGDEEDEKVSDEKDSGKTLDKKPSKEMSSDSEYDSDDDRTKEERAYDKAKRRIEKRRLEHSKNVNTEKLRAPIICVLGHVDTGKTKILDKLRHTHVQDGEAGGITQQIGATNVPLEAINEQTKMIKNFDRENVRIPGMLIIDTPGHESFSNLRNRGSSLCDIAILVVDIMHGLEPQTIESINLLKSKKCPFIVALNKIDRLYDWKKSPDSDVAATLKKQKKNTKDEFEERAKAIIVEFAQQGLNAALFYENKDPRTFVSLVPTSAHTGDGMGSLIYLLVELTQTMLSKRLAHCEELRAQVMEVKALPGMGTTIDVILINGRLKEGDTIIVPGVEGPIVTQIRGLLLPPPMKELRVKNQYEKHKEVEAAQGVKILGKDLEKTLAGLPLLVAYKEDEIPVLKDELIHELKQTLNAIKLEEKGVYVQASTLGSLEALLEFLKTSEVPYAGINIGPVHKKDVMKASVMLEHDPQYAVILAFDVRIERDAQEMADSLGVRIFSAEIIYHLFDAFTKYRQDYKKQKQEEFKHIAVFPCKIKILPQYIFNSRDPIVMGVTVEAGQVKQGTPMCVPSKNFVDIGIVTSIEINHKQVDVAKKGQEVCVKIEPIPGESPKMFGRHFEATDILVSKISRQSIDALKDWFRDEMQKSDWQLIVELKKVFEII

[3] = target: T2, MAP/microtubule affinity-regulating kinase 4 (Homo sapiens, UniProt Q96L34)
T2 sequence (Q96L34 whole entry): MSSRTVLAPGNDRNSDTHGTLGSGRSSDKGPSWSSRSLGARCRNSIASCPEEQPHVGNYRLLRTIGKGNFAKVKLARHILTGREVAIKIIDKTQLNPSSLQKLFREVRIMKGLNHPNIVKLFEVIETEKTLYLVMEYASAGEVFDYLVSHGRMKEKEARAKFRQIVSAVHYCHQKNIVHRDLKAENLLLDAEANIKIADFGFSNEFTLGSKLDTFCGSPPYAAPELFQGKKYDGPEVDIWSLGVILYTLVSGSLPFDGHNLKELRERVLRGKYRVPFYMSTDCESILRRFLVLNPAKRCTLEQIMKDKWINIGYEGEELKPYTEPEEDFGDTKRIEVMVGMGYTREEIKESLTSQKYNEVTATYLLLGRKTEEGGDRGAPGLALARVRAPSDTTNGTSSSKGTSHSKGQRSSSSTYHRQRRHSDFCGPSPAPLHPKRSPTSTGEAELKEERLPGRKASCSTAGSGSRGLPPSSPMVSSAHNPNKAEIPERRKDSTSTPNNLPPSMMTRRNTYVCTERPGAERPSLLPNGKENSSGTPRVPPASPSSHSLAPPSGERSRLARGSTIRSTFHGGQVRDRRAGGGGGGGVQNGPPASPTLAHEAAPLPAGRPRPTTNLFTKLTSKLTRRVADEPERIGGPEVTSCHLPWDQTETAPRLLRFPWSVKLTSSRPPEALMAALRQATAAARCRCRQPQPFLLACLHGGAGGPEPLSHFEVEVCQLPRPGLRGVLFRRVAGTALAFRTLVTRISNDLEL

[4] = target: T3, Protein kinase C zeta type (Homo sapiens, UniProt Q05513)
T3 sequence (Q05513 whole entry): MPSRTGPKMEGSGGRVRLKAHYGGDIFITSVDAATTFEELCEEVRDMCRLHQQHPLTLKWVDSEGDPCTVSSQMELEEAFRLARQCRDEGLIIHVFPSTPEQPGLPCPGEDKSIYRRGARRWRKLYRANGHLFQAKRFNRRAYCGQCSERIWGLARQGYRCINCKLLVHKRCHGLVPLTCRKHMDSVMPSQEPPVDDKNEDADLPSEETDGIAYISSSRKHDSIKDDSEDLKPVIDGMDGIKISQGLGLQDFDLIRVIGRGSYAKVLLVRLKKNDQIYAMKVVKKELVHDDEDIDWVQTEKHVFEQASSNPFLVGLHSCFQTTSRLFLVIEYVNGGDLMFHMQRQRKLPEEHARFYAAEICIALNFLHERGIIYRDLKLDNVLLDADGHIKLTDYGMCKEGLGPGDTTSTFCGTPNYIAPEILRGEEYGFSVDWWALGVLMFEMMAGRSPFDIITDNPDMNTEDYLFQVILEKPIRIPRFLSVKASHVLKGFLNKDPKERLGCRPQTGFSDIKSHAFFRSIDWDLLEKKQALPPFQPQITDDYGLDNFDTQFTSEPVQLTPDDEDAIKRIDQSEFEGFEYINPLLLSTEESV
Further: in the data inactive means no Kd found up to 30 µM.

Sequence of Serine/threonine-protein kinase PAK 6 (Q9NQU5 whole entry): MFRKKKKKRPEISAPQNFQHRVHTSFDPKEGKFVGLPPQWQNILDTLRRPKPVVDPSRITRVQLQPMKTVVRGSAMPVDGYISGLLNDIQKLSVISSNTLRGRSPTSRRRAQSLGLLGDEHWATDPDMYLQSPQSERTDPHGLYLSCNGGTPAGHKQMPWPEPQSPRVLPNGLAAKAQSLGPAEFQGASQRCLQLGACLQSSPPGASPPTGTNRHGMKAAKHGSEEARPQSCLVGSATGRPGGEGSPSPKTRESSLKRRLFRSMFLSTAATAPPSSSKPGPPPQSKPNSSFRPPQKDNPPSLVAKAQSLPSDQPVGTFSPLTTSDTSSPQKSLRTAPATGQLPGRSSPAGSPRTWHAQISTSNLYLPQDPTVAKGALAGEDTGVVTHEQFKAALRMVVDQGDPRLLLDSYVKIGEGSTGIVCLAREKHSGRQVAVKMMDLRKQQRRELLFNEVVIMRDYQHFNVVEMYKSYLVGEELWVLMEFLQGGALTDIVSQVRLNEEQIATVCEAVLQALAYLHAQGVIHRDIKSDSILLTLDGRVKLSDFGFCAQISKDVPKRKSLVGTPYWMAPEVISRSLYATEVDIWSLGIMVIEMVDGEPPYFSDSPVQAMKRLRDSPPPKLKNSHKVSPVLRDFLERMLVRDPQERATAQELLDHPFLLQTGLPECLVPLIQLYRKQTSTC

Row | Kd [1] | Kd [2] | Kd [3] | Kd [4] | Compound
1 |  | > 30 µM (inactive) | > 30 µM (inactive) |  | COc1ccc2c(OCc3nnc4ccc(-c5ccccc5)nn34)ccnc2c1 [AMG-208]
2 |  |  | > 30 µM (inactive) |  | CC(C)(O)CC(=O)NCCn1ccc2ncnc(Nc3ccc(Oc4cccc(C(F)(F)F)c4)c(Cl)c3)c21 [TAK-285]
3 |  | > 30 µM (inactive) | > 30 µM (inactive) |  | COc1cc2ncnc3c2cc1OCCCCCN(C)Cc1ccc(Br)cc1N3 [JNJ-26483327]
4 | > 30 µM (inactive) | > 30 µM (inactive) | > 30 µM (inactive) |  | Cn1c(=O)c(F)c(Nc2ccc(I)cc2F)c2c(=O)n(C[C@@H](O)CO)cnc21 [TAK-733]
5 |  |  | > 30 µM (inactive) | > 30 µM (inactive) | COc1cccc(Nc2ncnn3ccc(CN4CC[C@@H](N)[C@H](O)C4)c23)c1 [BMS-690514]
6 |  | > 30 µM (inactive) | > 30 µM (inactive) |  | CCOc1ccn(-c2ccc(F)cc2)c(=O)c1C(=O)Nc1ccc(Oc2ccnc(N)c2Cl)c(F)c1 [BMS-777607]
7 |  |  | > 30 µM (inactive) |  | Cc1cc(C(=O)Nc2cc(Oc3ccc4nc(NC(=O)C5CC5)cn4n3)ccc2C)n(C)n1 [TAK-593]
8 | > 30 µM (inactive) |  | > 30 µM (inactive) |  | c1cc(OCCN2CCCCC2)cc(-c2n[nH]c3ccc(-c4nc[nH]n4)cc23)c1 [CC-401]

Continued, molecule first:

Row | Compound | Kd [1] | Kd [2] | Kd [3] | Kd [4]
9 | CCN(CCCOc1ccc2c(Nc3cc(CC(=O)Nc4cccc(F)c4)n[nH]3)ncnc2c1)CCOP(=O)(O)O [BARASERTIB] | > 30 µM (inactive) | > 30 µM (inactive) |  | 
10 | O=C(NOC[C@H](O)CO)c1ccc(F)c(F)c1Nc1ccc(I)cc1F [MIRDAMETINIB] | > 30 µM (inactive) | > 30 µM (inactive) | > 30 µM (inactive) | 
11 | COc1cc(Nc2ncc(F)c(Nc3ccc4c(n3)N(COP(=O)(O)O)C(=O)C(C)(C)O4)n2)cc(OC)c1OC [FOSTAMATINIB] |  |  | > 30 µM (inactive) | > 30 µM (inactive)
12 | CNC(=O)c1cc(COc2nnc(Nc3ccc(Cl)cc3)c3ccoc23)ccn1 [TELATINIB] | > 30 µM (inactive) | > 30 µM (inactive) | > 30 µM (inactive) | 
13 | COc1ccc(-c2ccc3ncc4c(c3c2)n(-c2ccc(N3CCNCC3)c(C(F)(F)F)c2)c(=O)n4C)cn1 [BGT-226 FREE BASE] | > 30 µM (inactive) | > 30 µM (inactive) | > 30 µM (inactive) | 
14 | COc1cc2c(N3CCN(C(=O)Nc4ccc(OC(C)C)cc4)CC3)ncnc2cc1OCCCN1CCCCC1 [TANDUTINIB] |  | > 30 µM (inactive) |  | 
15 | FC(F)(F)c1ccc(CNc2ccc(Cc3c[nH]c4ncc(Cl)cc34)cn2)cn1 [PEXIDARTINIB] |  |  | > 30 µM (inactive) | 
16 | S=C(NCc1ccc2c(c1)OCO2)N1CCN(c2ncnc3c2oc2ccccc23)CC1 [AMUVATINIB] |  | > 30 µM (inactive) | > 30 µM (inactive) | 
17 | C=CC(=O)Nc1cccc(Nc2nc(Nc3ccc(N4CCN(C(C)=O)CC4)cc3OC)ncc2C(F)(F)F)c1 [ROCILETINIB] |  | > 30 µM (inactive) |  | 
18 | C[C@@H]1COC(Nc2ccc3ncnc(Nc4ccc(OCc5nccs5)c(Cl)c4)c3c2)=N1 [VARLITINIB] | > 30 µM (inactive) |  | > 30 µM (inactive) | 
19 | O=c1[nH]c([C@@H]2CCCN2)nc2c1oc1ccc(Cl)cc12 |  | > 30 µM (inactive) | > 30 µM (inactive) | 
20 | CC(C)CC(=O)Nc1[nH]nc2c1CN(C(=O)C1CCN(C)CC1)C2(C)C [PHA-793887] |  | > 30 µM (inactive) | > 30 µM (inactive) | 
21 | Cc1c(NC(=O)OC[C@@H]2COCCN2)cn2ncnc(Nc3ccc4c(cnn4Cc4cccc(F)c4)c3)c12 [AC-480] | > 30 µM (inactive) |  | > 30 µM (inactive) | 
22 | C[C@]1(O)C[C@@H](c2nc(-c3ccc4ccc(-c5ccccc5)nc4c3)c3c(N)nccn32)C1 [LINSITINIB] | > 30 µM (inactive) | > 30 µM (inactive) | > 30 µM (inactive) | 
23 | COc1cc2ncnc(Nc3ccc(F)c(Cl)c3)c2cc1NC(=O)/C=C/CN1CCCCC1 [DACOMITINIB ANHYDROUS] |  | > 30 µM (inactive) | > 30 µM (inactive) | 
24 | O=S(=O)(c1cccc2cnccc12)N1CCCNCC1 [FASUDIL] |  | > 30 µM (inactive) | > 30 µM (inactive) | 
25 | Cc1c(Cn2c(C)nc3c(C(=O)O)cc(N4CCOCC4)cc32)cccc1C(F)(F)F [GSK-2636771] |  |  | > 30 µM (inactive) | > 30 µM (inactive)
26 | CN(c1ncccc1CNc1nc(Nc2ccc3c(c2)CC(=O)N3)ncc1C(F)(F)F)S(C)(=O)=O [PF-00562271] | > 30 µM (inactive) | > 30 µM (inactive) |  | 
27 | CNC(=O)c1cccc(-c2ccc3c(N4CCOC[C@@H]4C)nc(N4CCOC[C@@H]4C)nc3n2)c1 [VISTUSERTIB] | > 30 µM (inactive) | > 30 µM (inactive) | > 30 µM (inactive) | 
28 | NC[C@@](O)(c1ccc(Cl)cc1)c1ccc(-c2cn[nH]c2)cc1 [AT-13148] |  | > 30 µM (inactive) |  | 
29 | C=CCN(/C=C1/C(=O)O[C@H](COC)[C@@]2(C)C1=C(O)C(=O)C1=C2[C@H](OC(C)=O)C[C@]2(C)C(=O)CC[C@@H]12)CC=C [SONOLISIB] | > 30 µM (inactive) |  |  | 
30 | CCc1nc(C(N)=O)c(Nc2ccc(N3CCC(N4CCN(C)CC4)CC3)c(OC)c2)nc1NC1CCOCC1 [GILTERITINIB] |  | > 30 µM (inactive) | > 30 µM (inactive) | 
31 | COc1cc2ncnc(Nc3ccc(O)cc3)c2cc1OC [WHI-P131] | > 30 µM (inactive) | > 30 µM (inactive) |  | 
32 | Cc1ccc(C(=O)Nc2ccc(Oc3cc4cnn(C)c4cc3-c3cn[nH]c3)c(F)c2)c(=O)n1-c1ccc(F)cc1 [MERESTINIB] | > 30 µM (inactive) | > 30 µM (inactive) | > 30 µM (inactive) | 
33 | C=CC(=O)Nc1cc(Nc2nccc(-c3cn(C)c4ccccc34)n2)c(OC)cc1N(C)CCN(C)C [OSIMERTINIB] |  | > 30 µM (inactive) | > 30 µM (inactive) | 
34 | Cc1cc(-c2cc(OC(=O)c3ccccc3)ccc2Cl)cc2nnc(Nc3ccc(OCCN4CCCC4)cc3)nc12 [TG100-801] |  |  | > 30 µM (inactive) | > 30 µM (inactive)
35 | CNC(=O)c1ccc(Nc2ncc(C(F)(F)F)c(NCc3nccnc3N(C)S(C)(=O)=O)n2)cc1 [DEFACTINIB] | > 30 µM (inactive) |  | > 30 µM (inactive) | 
36 | CN(C)C/C=C/C(=O)Nc1cc2c(Nc3ccc(F)c(Cl)c3)ncnc2cc1O[C@H]1CCOC1 [AFATINIB] |  |  |  | > 30 µM (inactive)
37 | CN1CCN(c2nc(C3=C(c4c[nH]c5ccccc45)C(=O)NC3=O)c3ccccc3n2)CC1 [SOTRASTAURIN] | > 30 µM (inactive) | > 30 µM (inactive) | > 30 µM (inactive) | 
